This assay addresses SK channel. Description: competitive apamin-binding inhibition assay (same manner as WO02/079189, Experiment 1). Conditions: competitive binding assay against apamin, a selective SK channel blocker; read-out: apamin-binding inhibitory activity (IC50).

Consider `CCOc1cccc(Cn2ncc3c(N4CCN(C(=O)c5ccc(N(CCN(C)C)C(=O)C6CC6)cc5)CC4)ncnc32)c1` [1-(3-ethoxybenzyl)-4-[4-[4-[N-(cyclopropyl-carbonyl)-N-[2-(dimethylamino)ethyl]amino]benzoyl]piperazin-1-yl]-1H-pyrazolo[3,4-d]pyrimidine], for which the IC50 (in general, the concentration that gives 50% inhibition) amounted to 50 nM.

The record behind these values is patent US7384952B2, “Pyrazolopyrimidine compound and a process for preparing the same” (Mitsubishi Tanabe Pharma Corporation, priority 2003, dated 2008).
